Measured values as given in patent publication US8212016B2, “NPC1L1 orthologues” (Schering Corporation, priority 2006, dated 2012).
Read-outs that look alike come from different tables or passages of the source.

How the values were obtained:
[1] = molecular target: canine NPC1L1 (Canis lupus familiaris, UniProt A0MJA4); experiment: Fluorescence NPC1L1 binding assay, HEK-293 cells, BODIPY-labeled compound 1; settings: for Ki: read-out: Ki Dog NPC1L1
Method: (§1) Cell Culture and Membrane Preparation. Each plasmid pCR3.1 harboring NPC1L1 was prepared using standard molecular biology protocols. Stable cell lines expressing human, rhesus monkey, mouse, rat, hamster, canine or rabbit NPC1L1 were generated using Lipofectamine 2000 transfection reagent in HEK-293 cells according to the manufacturer's protocol. Cells were maintained in DMEM supplemented with 10% FBS, 100 U/ml pen/strep, and 500 μg/ml geneticin at 37° C., 5% CO2. All cell culture reagents were obtained from Invitrogen Life Technologies, (Carlsbad, Calif.). Cell membranes were prepared by lysing cells in 5 mM HEPES with protease inhibitors (Complete™ Protease Inhibitor Cocktail Tablets; Roche Diagnostics Corp., Indianapolis Ind.) for 15 min at 4° C. A membrane pellet was obtained by centrifuging the cell lysates at 12,000×g for 25 min. The membranes were resuspended in 5 mM HEPES with protease inhibitors and triturated with a 21G needle.
(§2) Fluorescence. Cells were plated into 384-well black/clear plates (BD Biosciences, Bedford Mass.) for binding experiments the following day. The media was aspirated. […] Media (20 μl) containing the indicated concentration of compound was then added to the wells. […] The binding reaction was allowed to proceed for 4 hours at 37° C. Subsequently the media was aspirated and the cells washed once with PBS.

[2] = molecular target: hamster NPC1L1 (Mesocricetus auratus, UniProt A0MJA8); experiment: as above; settings: for Ki: read-out: Ki Hamster NPC1L1
Method: as §1, §2

[3] = molecular target: T1, human NPC1L1 (Homo sapiens, UniProt Q9UHC9, T1073A); experiment: as above; settings: for Ki: read-out: Ki Human NPC1L1
T1 construct: expressed in transfected cells
T1 sequence (Q9UHC9 22-1332 isoform Q9UHC9-2 T1046A): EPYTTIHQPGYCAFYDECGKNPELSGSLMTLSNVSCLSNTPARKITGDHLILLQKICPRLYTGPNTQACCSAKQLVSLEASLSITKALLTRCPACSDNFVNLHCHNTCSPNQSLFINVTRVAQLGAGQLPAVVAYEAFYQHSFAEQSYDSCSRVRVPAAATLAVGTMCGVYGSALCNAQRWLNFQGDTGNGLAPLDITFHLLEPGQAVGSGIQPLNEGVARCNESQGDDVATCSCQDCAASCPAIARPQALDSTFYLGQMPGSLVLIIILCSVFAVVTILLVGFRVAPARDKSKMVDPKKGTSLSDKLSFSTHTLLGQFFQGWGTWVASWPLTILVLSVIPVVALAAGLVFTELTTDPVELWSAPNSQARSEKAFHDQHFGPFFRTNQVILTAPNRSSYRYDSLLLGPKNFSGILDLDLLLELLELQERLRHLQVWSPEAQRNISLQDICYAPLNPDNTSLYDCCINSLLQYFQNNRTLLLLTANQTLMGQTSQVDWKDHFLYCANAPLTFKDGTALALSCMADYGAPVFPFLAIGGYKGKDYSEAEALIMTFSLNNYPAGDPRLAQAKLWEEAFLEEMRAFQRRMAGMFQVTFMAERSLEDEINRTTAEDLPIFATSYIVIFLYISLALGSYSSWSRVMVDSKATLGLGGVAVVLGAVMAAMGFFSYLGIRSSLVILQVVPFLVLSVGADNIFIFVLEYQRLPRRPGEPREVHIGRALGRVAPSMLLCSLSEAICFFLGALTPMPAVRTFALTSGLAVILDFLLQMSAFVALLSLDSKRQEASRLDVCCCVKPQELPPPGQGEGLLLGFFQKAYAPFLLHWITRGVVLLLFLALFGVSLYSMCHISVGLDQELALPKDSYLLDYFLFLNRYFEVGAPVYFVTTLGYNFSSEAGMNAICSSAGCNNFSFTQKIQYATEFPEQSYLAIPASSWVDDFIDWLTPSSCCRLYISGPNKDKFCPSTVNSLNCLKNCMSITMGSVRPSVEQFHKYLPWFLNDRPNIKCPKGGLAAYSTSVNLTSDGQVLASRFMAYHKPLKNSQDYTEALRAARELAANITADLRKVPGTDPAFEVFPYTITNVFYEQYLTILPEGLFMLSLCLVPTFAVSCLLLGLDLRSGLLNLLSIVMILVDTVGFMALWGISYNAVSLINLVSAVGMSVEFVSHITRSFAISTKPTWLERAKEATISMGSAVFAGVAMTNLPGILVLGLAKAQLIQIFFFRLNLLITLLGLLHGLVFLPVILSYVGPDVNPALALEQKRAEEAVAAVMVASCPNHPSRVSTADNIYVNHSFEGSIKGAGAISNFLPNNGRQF
Method: as §1, §2

[4] = molecular target: rabbit NPC1L1 (Oryctolagus cuniculus, UniProt A0MJA7); experiment: as above; settings: for Ki: read-out: Ki Rabbit NPC1L1
Method: as §1, §2

[5] = molecular target: T2, rat NPC1L1 (Rattus norvegicus, UniProt Q6T3U3, A349V/E317P/G318E/K324N/L297S); experiment: as above; settings: for Ki: read-out: Ki Rat NPC1L1
T2 construct: expressed in transfected cells
Method: as §1, §2

[6] = molecular target: T3, monkey NPC1L1 (Macaca mulatta, UniProt A0MJA5); experiment: as above; set-up: species or system rhesus monkey; settings: for Ki: read-out: Ki Monkey NPC1L1
Method: as §1, §2

[7] = test system: cholesterol; experiment: In vivo cholesterol lowering activity
[8] = test system: plasma and liver cholesterol; experiment: Percent cholesterol lowering in plasma and liver; type: in vivo; settings: hamster
[9] = molecular target: T4, mouse NPC1L1 (Mus musculus, UniProt Q6T3U4, N476K); experiment: Fluorescence NPC1L1 binding assay, HEK-293 cells, fluorescent compound 2 as ligand; settings: for Ki: read-out: Ki Mouse NPC1L1; for Kd: saturation binding, mouse NPC1L1
T4 construct: expressed in transfected cells
Method: as §1, §2
In an effort to show binding to mouse NPC1L1, several related ezetimibe analogs were examined as possible alternatives to fluorescently-labeled (BODIPY) ezetimibe glucuronide (compound 1) in the binding assay. Compound 2, which is a fluorescently labeled synthetic precursor for fluorescently-labeled (BODIPY) ezetimibe glucuronide (compound 1; Burnett et al., Bioorganic and Medicinal Chemistry Letters 12:315-318 (2002)), was identified as a viable option for detection of mouse NPC1L1 binding. Compound 2 contains a methyl ester substitution for the carboxylic acid on the glucuronide portion of the molecule (compound structures shown in FIG. 4A).

[10] = test system: ^14C-cholesterol absorption; experiment: Acute cholesterol absorption assay; type: in vivo; settings: intraduodenal
Method: Acute cholesterol absorption assay. ^14C-cholesterol absorption was determined acutely in rats using conditions previously described (Van Heek et al., J. Pharmacol. Exp. Ther. 283: 157-163 (1997)). Compounds were dissolved in rat bile and delivered (1.0 ml) intraduodenally by bolus injection via an intestinal catheter, followed by 1.0 ml saline rinse (0.9%). Following a 30 min incubation, a cholesterol emulsion containing 3 mg cholesterol and 2 μCi ^14C-cholesterol (3 ml) was delivered to each rat as a bolus via intestinal catheter, followed by 1 ml saline rinse. Animals were sacrificed 90 min later and ^14C-cholesterol levels in plasma, liver, intestinal contents, and intestinal wall were determined.

[11] = test system: NPC1L1 orthologs of multiple species; experiment: Binding to NPC1L1 orthologs of multiple species; settings: NPC1L1 orthologs of the species tested
Method: as §1, §2

[12] = molecular target: T1, human NPC1L1; experiment: Radioligand binding of [3H]-glucuronidated ezetimibe (compound 4) to cell membranes
Method: (§3) Cell Culture and Membrane Preparation. […] Cells were maintained in DMEM supplemented with 10% FBS, 100 U/ml pen/strep, and 500 μg/ml geneticin at 37° C., 5% CO2. All cell culture reagents were obtained from Invitrogen Life Technologies, (Carlsbad, Calif.). Cell membranes were prepared by lysing cells in 5 mM HEPES with protease inhibitors (Complete™ Protease Inhibitor Cocktail Tablets; Roche Diagnostics Corp., Indianapolis Ind.) for 15 min at 4° C. A membrane pellet was obtained by centrifuging the cell lysates at 12,000×g for 25 min. […] Radioligand. […] Natl. Acad. Sci. […] Reactions were performed in binding buffer (5 mM HEPES, 5.5 mM glucose, 117 mM NaCl and 5.4 mM KCl, pH 7.4). Cell membranes (50 μg in 20 μl) were added to each well. […] Binding reactions were incubated for 2 hours at 37° C. Samples were transferred to Unifilter-96 GF/C plates (Perkin Elmer, Wellesley Mass.) and filtered using a Brandel harvester (Gaithersburg Md.). […] Liquid scintillant (50 μl; Microscint-20, Perkin Elmer, Wellesley Mass.) was added and the bound radioactivity was measured using a microplate scintillation counter.

[13] = molecular target: T3, monkey NPC1L1; experiment: as above; set-up: species or system rhesus monkey
Method: as §3

Structure (SMILES)	Ki ([1]; Table 3, Dog) [nM]	Ki ([2]; Table 3, Hamster) [nM]	Ki ([3]; Table 3, Human) [nM]	Ki ([4]; Table 3, Rabbit) [nM]	Ki ([5]; Table 3, Rat) [nM]	Ki ([6]; Table 3, Monkey) [nM]	in vivo cholesterol lowering activity [7]	cholesterol lowering Liver [8] [%]	cholesterol lowering Plasma [8] [%]	Ki ([9]; Table 3, Mouse) [nM]	NPC1L1 binding activity [11]	Ki [12] [nM]	Ki [13] [nM]	also measured
O=C1[C@H](CC[C@H](O)c2ccc(F)cc2)[C@@H](c2ccc(O)cc2)N1c1ccc(I)cc1 [compound 6]	1430	2340	4590	5000	1460	1600	exhibiting in vivo cholesterol lowering activity	63	22	16400	–	–	–	–
O=C(CS[C@H]1C(=O)N(c2ccc(F)cc2)[C@@H]1c1ccc(O)cc1)c1ccc(F)cc1 [compound 7]	2300	4280	–	5600	2100	–	exhibiting in vivo cholesterol lowering activity	96	47	21600	decreased	–	–	ED50 ([10]; rat, read-out: rat ED50, inhibition of cholesterol absorption): 0.036 mg/kg
COc1ccc(N2C(=O)[C@H](CCCc3ccccc3)[C@H]2c2ccc(O[C@@H]3O[C@H](COCc4ccccc4)[C@@H](OCc4ccccc4)[C@H](OCc4ccccc4)[C@H]3OCc3ccccc3)cc2)cc1 [compound 8]	–	–	–	–	–	–	no in vivo cholesterol lowering activity	–	–	–	total loss	–	–	Ki Dog NPC1L1 ([1]; Table 3, Dog): In- active; Ki Hamster NPC1L1 ([2]; Table 3, Hamster): In- active; Ki Human NPC1L1 ([3]; Table 3, Human): In- active; Ki Rabbit NPC1L1 ([4]; Table 3, Rabbit): In- active; Ki Rat NPC1L1 ([5]; Table 3, Rat): In- active; Ki Monkey NPC1L1 ([6]; Table 3, Monkey): In- active; rat ED50, inhibition of cholesterol absorption [10]: In- active; Ki Mouse NPC1L1 ([9]; Table 3, Mouse): In- active
Cc1cc(C)n2c1C=C1C=CC(CCC(=O)NCC#Cc3ccc(N4C(=O)[C@H](CC[C@H](O)c5ccc(F)cc5)[C@H]4c4ccc(O[C@@H]5O[C@H](C(=O)O)[C@@H](O)[C@H](O)[C@H]5O)cc4)cc3)=[N+]1[B-]2(F)F [compound 1, BODIPY-labeled glucuronidated ezetimibe]	–	–	–	–	–	–	–	–	–	–	–	2500	210	Kd ([1]; saturation binding, canine NPC1L1, 4 h): 52 nM; Kd ([2]; saturation binding, hamster NPC1L1, 4 h): 49 nM; Kd ([3]; saturation binding, human NPC1L1, 4 h): 61 nM; Kd ([4]; saturation binding, rabbit NPC1L1, 4 h): 151 nM; Kd ([5]; saturation binding, rat NPC1L1, 4 h): 58 nM; Kd ([6]; saturation binding, monkey NPC1L1, 4 h): 46 nM; Kd [9]: could not be detected
O=C1[C@H](CC[C@H](O)c2ccc(F)cc2)[C@@H](c2ccc(O[C@@H]3O[C@H](CO)[C@@H](O[C@@H]4O[C@H](CO)[C@@H](O)[C@H](O)[C@H]4O)[C@H](O)[C@H]3O)cc2)N1c1ccc(F)cc1 [compound 5]	1280	1200	2150	1900	542	370	exhibiting in vivo cholesterol lowering activity	86	36	7700	–	–	–	–
COC(=O)[C@H]1O[C@@H](Oc2ccc([C@@H]3[C@@H](CC[C@H](O)c4ccc(F)cc4)C(=O)N3c3ccc(C#CCNC(=O)CCC4=[N+]5C(=Cc6c(C)cc(C)n6[B-]5(F)F)C=C4)cc3)cc2)[C@H](O)[C@@H](O)[C@@H]1O [compound 2]	–	–	–	–	–	–	–	–	–	–	–	120	70	increase in affinity versus compound 1 ([13]; monkey NPC1L1, methyl ester for carboxylic acid): 3 fold; Kd ([9]; read-out: Kd): 118 nM
